Experimental data reported in US10875891B2, “Short synthetic peptide and uses thereof” (MacKay Memorial Hospital, priority 2018, dated 2020).
Where no end group is shown, it is not given here. [ ]: non-standard residue; d: D form.

How the values were obtained:
[1] = system: Murine psoriasis vulgaris-like skin inflammation model; test: IMQ-induced psoriasis vulgaris-like skin inflammation model, keratinocyte proliferation by BrdU incorporation; assay type: in vivo, BALB/c mice; conditions: 25 μM with IMQ cream, day 6; IMQ control 24.5±2.0; FIG. 9 panel B
Description: (§1) BALB/c mice (8-weeks old females; n=42) were used in this model system. […] Accordingly, in this model, each BALB/c mice received a daily topical dose (62.5 mg) of commercially available IMQ cream (Imiquimod Cream 5% w/w, Aldara™) on the shaved back and the right ear for 6 consecutive days (n=6); whereas the control mice (normal group) were treated with a control cream (n=6). For treatment, each test peptide was mixed with IMQ cream to give a concentration of 25 μM (n=6 per group). Keratinocyte proliferation was determined by BrdU incorporation. BrdU (Sigma-Aldrich) was reconstituted in DMSO as a stock solution of 80 mM. 10 μl of BrdU mixed with 90 μl of PBS was intraperitoneally injected into each mouse for 24 hr prior to euthanasia.
(§2) Slides were blocked with 10% goat serum for 60 min and then incubated with primary antibody against BrdU (1:50 dilution; GTX42641) for 3 hr at RT. The slides were then incubated with peroxidase-labeled donkey immunoglobulin for 30 min and then incubated with chromogen substrate (3,3′-diaminobenzidine) for 2 min before counterstaining with hematoxylin. Quantification was estimated based on high quality images (1208×960 pixels buffer) captured using a Nikon Eclipse 80i light microscope.

myeloma RPMI 8226 cell = test: MTT assay, cell viability; assay type: cell-based, human; conditions: 20 μM peptide, 24 h, serum-free RPMI1640; FIGS. 1-2
Description: The multiple myeloma line RPMI8226 or […] Raw264.7 macrophages were cultivated in complex medium (RPMI1640) supplemented with 10% (vol/vol) heat-inactivated fetal calf serum (Invitrogen), 50 μg/mL penicillin, 50 μg/mL streptomycin, and 2 mM L-glutamine at 37° C. in a 5% CO2 atmosphere
RPMI8226 cells or U266 cells were cultured in serum-free RPMI1640 medium for 24 h, and then cells seeded in 48-well culture plates (3×10^5 cells/well) and cultured in 0.5 ml fresh serum-free RPMI1640 medium containing 20 μM peptide for further 24 h. The cell viability was determined by the MTT assay.
50 μL of the MTT stock solution (5 mg MTT dissolved in 1 ml of sterile PBS) was added to each well, and 50 μL of the MTT stock solution was added to 500 μL of medium alone and used as a negative control. Each sample was Incubates at 37° C. for 4 hours. Aliquots (450 μl) from each sample were taken to a new well of 48-well culture plate, adding 100 μL DMSO, mixing thoroughly using the pipette and reacted at 37° C. for 20 min and absorbance was measured at 570 nm.

Murine dry eye model [2] = test: Dry eye animal model, tear production by phenol red thread test; assay type: in vivo, C57BL/6 mice; conditions: treated for 4 days; P<0.01 versus vehicle treatment; FIG. 4
Description: (§3) C57BL/6 mice (7-8 weeks old, each weighted about 18 to 25 g) were used in this model system. All mice were maintained in the animal facility in accordance with the procedures approved by Mackay Memorial Hospital Review Board (Taiwan, R.O. C.). All animal experimental procedures were conducted according to the ARVO Statement for the Use of Animals in Ophthalmic and Vision Research.
(§4) Dry eyes were induced by placing mice in a controlled environment chamber (CEC) for 14 days in accordance with procedures previously described by Barabino et al (IVOS (2005) 46(8), 2766-2771). Mice placed in the CEC were exposed to a condition, in which relative humidity (RH) was maintained at <25%, temperature at 20-22° C., and airflow at about 15 L/min, for 12 hours per day. Control mice were kept in a normal environment (RH>50%, no air flow, temperature of 20-22° C.) for the same duration.
(§5) A common artificial tear formulation, 1% carboxymethylcelllulose (CMC) dissolved in balanced salt solution (BSS) was used as the peptide vehicle. Peptide (50 μM) or 1% CMC vehicle was topically administered to eyes three times a day, for 4 days.
Tear production was measured with phenol red-impregnated cotton threads (Zone-Quick; Oasis, Glendora, Calif.). The validity of this test in mice was performed as previously described (Dursun et al., Invest Ophthalmol Vis Sci. 2002; 43:632-8). The threads were held with jeweler forceps and placed in the lateral canthus for 60 seconds. The tear production expressed in millimeters of thread wet by the tear and turned red.

Murine dry eye model [3] = test: Dry eye animal model, fluorescein eye stain test for corneal injuries; assay type: in vivo, C57BL/6 mice; conditions: peptide 50 μM topically three times a day for 4 days; for reduction in mean corneal fluorescein staining score compared with vehicle treated control mice: FIG. 3 panel B
Description: as §3, §4, §5
Corneal epithelial injury was determined by staining with topical fluorescein (100 mg/ml or 10%; FLUORESCITE™, Alcon Laboratories). For dosing, topical fluorescein (0.6 μL of 0.5% sodium fluorescein dissolved in 4.4 μL BSS per eye) was applied via a micro-pipette to the lateral canthus for 15 sec. Corneal fluorescein staining was examined with a slit-lamp biomicroscope under cobalt blue light and photographed with a digital camera. Data is presented as mean±SD. Dye staining of the cornea was scored in a blinded manner as follows: score 0 for no punctuate staining; score 1 when less than one third of the cornea was stained; score 2 when two thirds or less was stained; and score 3 when more than two thirds was stained.

[4] = system: Murine psoriasis vulgaris-like skin inflammation model; test: IMQ-induced psoriasis vulgaris-like skin inflammation model, H&E histology of back skin; assay type: in vivo, BALB/c mice; conditions: 25 μM with IMQ cream, 6 days; IMQ control 122±10.5; FIG. 8 panel B
Description: as §1
Back skin of the mouse was fixed overnight in 4% paraformaldehyde, dehydrated with graded ethanol series, and paraffinized. Fixed samples were deparaffinized in xylene and rehydrated in a graded series of ethanol. Tissues were sliced into 5-μm sections. General histology was performed using hematoxylin and eosin (H&E) (Merck, Rayway, N.J., USA).
as §2

For “NH2-(D-Asp)-Ile-Thr-Tyr-Val-Arg-Leu-Lys-Phe-COOH ([dD]ITYVRLKF; not fully specified (N-terminus, C-terminus); printed as NH2-(D-Asp)-Ile-Thr-Tyr-Val-Arg-Leu-Lys-Phe-COOH) [9-mer DD, 9-mer analogue, aspartate replaced by D-form aspartate]”, the “hyperproliferation of keratinocytes, BrdU-positive cells in the epidermis (labeling index)” value [1] was 23.3±2.5%.

For “NH2-Ala-Ile-Thr-Tyr-Val-Arg-Leu-Lys-Phe-COOH (AITYVRLKF; not fully specified (N-terminus, C-terminus); printed as NH2-Ala-Ile-Thr-Tyr-Val-Arg-Leu-Lys-Phe-COOH) [9-mer Da, 9-mer analogue, aspartate replaced by alanine]”, the “myeloma RPMI 8226 cell viability (MTT assay)” value (myeloma RPMI 8226 cell) was “sustain part of the inhibitory activity”, the “tear volume (tear production)” value (Murine dry eye model [2]) was “significantly increased” and the “reduction in mean corneal fluorescein staining score compared with vehicle treated control mice” value (“reduction” for short) (Murine dry eye model [3]) was “about 3 fold”.

“NH2-Asp-Ala-Thr-Tyr-Val-Arg-Leu-Lys-Phe-COOH (DATYVRLKF; not fully specified (N-terminus, C-terminus); printed as NH2-Asp-Ala-Thr-Tyr-Val-Arg-Leu-Lys-Phe-COOH) [9-mer Ia, 9-mer analogue, isoleucine replaced by alanine]” was tested, and the “myeloma RPMI 8226 cell viability (MTT assay)” value (myeloma RPMI 8226 cell) was “loss of the inhibitory activity”.

“NH2-Asp-Ile-Ala-Tyr-Val-Arg-Leu-Lys-Phe-COOH (DIAYVRLKF; not fully specified (N-terminus, C-terminus); printed as NH2-Asp-Ile-Ala-Tyr-Val-Arg-Leu-Lys-Phe-COOH) [9-mer Ta, 9-mer analogue, threonine replaced by alanine]” was tested, and the “myeloma RPMI 8226 cell viability (MTT assay)” value (myeloma RPMI 8226 cell) was “loss of the inhibitory activity”.

With “NH2-Asp-Ile-Thr-Ala-Val-Arg-Leu-Lys-Phe-COOH (DITAVRLKF; not fully specified (N-terminus, C-terminus); printed as NH2-Asp-Ile-Thr-Ala-Val-Arg-Leu-Lys-Phe-COOH) [9-mer Ya, 9-mer analogue, tyrosine replaced by alanine]” the “myeloma RPMI 8226 cell viability (MTT assay)” value (myeloma RPMI 8226 cell) was “loss of the inhibitory activity”.

In the case of “NH2-Asp-Ile-Thr-Tyr-Ala-Arg-Leu-Lys-Phe-COOH (DITYARLKF; not fully specified (N-terminus, C-terminus); printed as NH2-Asp-Ile-Thr-Tyr-Ala-Arg-Leu-Lys-Phe-COOH) [9-mer Va, 9-mer analogue, valine replaced by alanine]”, the “myeloma RPMI 8226 cell viability (MTT assay)” value (myeloma RPMI 8226 cell) is reported as “sustain part of the inhibitory activity”, the “tear volume (tear production)” value (Murine dry eye model [2]) is reported as “significantly increased” and the “reduction” value (Murine dry eye model [3]) is reported as “about 3 fold”.

For “NH2-Asp-Ile-Thr-Tyr-Val-Ala-Leu-Lys-Phe-COOH (DITYVALKF; not fully specified (N-terminus, C-terminus); printed as NH2-Asp-Ile-Thr-Tyr-Val-Ala-Leu-Lys-Phe-COOH) [9-mer Ra, 9-mer analogue, arginine replaced by alanine]”, the “myeloma RPMI 8226 cell viability (MTT assay)” value (myeloma RPMI 8226 cell) was “loss of the inhibitory activity”.

“NH2-Asp-Ile-Thr-Tyr-Val-Arg-Ala-Lys-Phe-COOH (DITYVRAKF; not fully specified (N-terminus, C-terminus); printed as NH2-Asp-Ile-Thr-Tyr-Val-Arg-Ala-Lys-Phe-COOH) [9-mer La, 9-mer analogue, leucine replaced by alanine]” was tested, and the “myeloma RPMI 8226 cell viability (MTT assay)” value (myeloma RPMI 8226 cell) was “loss of the inhibitory activity”.

In the case of “NH2-Asp-Ile-Thr-Tyr-Val-Arg-Leu-Ala-Phe-COOH (DITYVRLAF; not fully specified (N-terminus, C-terminus); printed as NH2-Asp-Ile-Thr-Tyr-Val-Arg-Leu-Ala-Phe-COOH) [9-mer Ka, 9-mer analogue, lysine replaced by alanine]”, the “myeloma RPMI 8226 cell viability (MTT assay)” value (myeloma RPMI 8226 cell) is reported as “loss of the inhibitory activity”.

In the case of “NH2-Asp-Ile-Thr-Tyr-Val-Arg-Leu-Lys-(D-Phe)-COOH (DITYVRLK[dF]; not fully specified (N-terminus, C-terminus); printed as NH2-Asp-Ile-Thr-Tyr-Val-Arg-Leu-Lys-(D-Phe)-COOH) [9-mer DF, 9-mer analogue, phenylalanine in D-form]”, the “tear volume (tear production)” value (Murine dry eye model [2]) is reported as “significantly increased”, the “acanthosis, quantified epidermal thickness” value [4] is reported as 35.7±4.2 μm and the “hyperproliferation of keratinocytes, BrdU-positive cells in the epidermis (labeling index)” value [1] is reported as 6.3±1.2%. The “reduction” value (Murine dry eye model [3]) was “about 3 fold”.

With “NH2-Asp-Ile-Thr-Tyr-Val-Arg-Leu-Lys-Ala-COOH (DITYVRLKA; not fully specified (N-terminus, C-terminus); printed as NH2-Asp-Ile-Thr-Tyr-Val-Arg-Leu-Lys-Ala-COOH) [9-mer Fa, 9-mer analogue, phenylalanine replaced by alanine]” the “myeloma RPMI 8226 cell viability (MTT assay)” value (myeloma RPMI 8226 cell) was “sustain part of the inhibitory activity”, the “tear volume (tear production)” value (Murine dry eye model [2]) was “significantly increased” and the “reduction” value (Murine dry eye model [3]) was “about 3 fold”.

With “NH2-Ile-Thr-Tyr-Val-Arg-Leu-Lys-Ala-COOH (ITYVRLKA; not fully specified (N-terminus, C-terminus); printed as NH2-Ile-Thr-Tyr-Val-Arg-Leu-Lys-Ala-COOH) [8-mer, control 8-mer peptide, aspartate residue of the 9-mer deleted]” the “corneal fluorescein stain (corneal damage), result in words” value (Murine dry eye model [3]; vs vehicle) was “no such effect”.
